Laboratory results published in US8895585B2, “Nicotinamide derivative or salt thereof” (FUJIFILM Corporation, priority 2010, dated 2014).
Like-named read-outs stand apart in the source and are kept apart here.

Assays:
THP-1 cells = experiment: TNFα generation assay; assay type: cell-based, human; details: Table 22, read-out: IC50 in TNFα generation assay
Summary of the method: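 Secreted TNFα in supernatant quantified by ELISA or AlphaLISA after 7 h culture on human IgG-coated wells (10 μg/ml coating). Cells were IFN-γ-differentiated THP-1 (10 ng/ml, 2 days), exposed to compound for 30 min at room temperature before plating.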

[1] = molecular target: T1, glutathione S-transferase (GST)-fused full-length human Syk protein (Homo sapiens, UniProt P43405); experiment: Syk enzyme assay; assay type: biochemical; details: Syk enzyme assay, Test Example 1; read-out: IC50 of Syk-inhibitory activity
T1 construct: (GST)-fused full-length human Syk protein; GST (glutathione S-transferase); purchased Carna Biosciences
Summary of the method: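 GST-tagged full-length human Syk (baculovirus) preincubated with compound 15 min at room temperature (pH 7.0, 10 mM MgCl2), then reacted 40 min with 0.4 μM biotinylated peptide substrate and 27 μM ATP (final). Phosphorylation read by HTRF (615/665 nm) after EDTA stop; IC50 reported.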

[2] = Homo sapiens, THP-1, THP-1 cells

Row | Structure (SMILES) | IC50 (THP-1 cells; [2]) | IC50 [1] | IC50 (THP-1 cells; THP-1 cells)
1 | CCCc1nn(CCOC)c2ccc(Nc3nc(N[C@@H]4CCCC[C@@H]4N)c(F)cc3C(N)=O)cc12 [Example 006-458, 6-(((1R,2S)-2-aminocyclohexyl)amino)-5-fluoro-2-((1-(2-methoxyethyl)-3-propyl-1H-indazol-5-yl)amino)nicotinamide] | 130 to 200 nM | < 10 nM | –
2 | NC(=O)c1cc(F)c(N[C@@H]2CCCC[C@@H]2N)nc1Nc1cnc2c(c1)OCCO2 (relative stereo) [Example 004-161, 6-(cis-2-aminocyclohexylamino)-2-((2,3-dihydro-[1,4]dioxino[2,3-b]pyridin-7-yl)amino)-5-fluoronicotinamide] | 130 to 200 nM | 10 to 50 nM | –
3 | CN(C)C(=O)c1cc2cc(Nc3nc(N[C@@H]4CCCC[C@@H]4N)c(F)cc3C(N)=O)ccc2[nH]1 (relative stereo) [Example 029-016, 5-((6-(cis-2-aminocyclohexylamino)-3-carbamoyl-5-fluoropyridin-2-yl)amino)-N,N-dimethyl-1H-indole-2-carboxamide] | 130 to 200 nM | < 10 nM | –
4 | C[C@H](N)[C@@H](CC1CC1)Nc1nc(Nc2ccc3cnn(C)c3c2)c(C(N)=O)cc1F [Example 006-361, 6-(((2R,3S)-3-amino-1-cyclopropylbutan-2-yl)amino)-5-fluoro-2-((1-methyl-1H-indazol-6-yl)amino)nicotinamide] | 65 to 130 nM | < 10 nM | –
5 | CCn1ncc2cc(Nc3nc(N[C@H](c4ccccc4)[C@H](C)N)c(F)cc3C(N)=O)ccc21 [Example 006-516, 6-(((1R,2S)-2-amino-1-phenylpropyl)amino)-2-((1-ethyl-1H-indazol-5-yl)amino)-5-fluoronicotinamide] | < 65 nM | < 10 nM | –
6 | COCCOc1cc(Nc2nc(N[C@H](c3ccc(F)cc3)[C@H](C)N)c(F)cc2C(N)=O)ccn1 [Example 006-559, 6-(((1R,2S)-2-amino-1-(4-fluorophenyl)propyl)amino)-5-fluoro-2-((2-(2-methoxyethoxy)pyridin-4-yl)amino)nicotinamide] | 65 to 130 nM | < 10 nM | –
7 | CC[C@@H](Nc1nc(Nc2cncc(-c3ccc(OC)cc3F)c2)c(C(N)=O)cc1F)[C@H](C)N [Example 006-279, 6-(((2S,3R)-2-aminopentan-3-yl)amino)-5-fluoro-2-((5-(2-fluoro-4-methoxyphenyl)pyridin-3-yl)amino)nicotinamide] | 65 to 130 nM | < 10 nM | –
8 | NC(=O)c1cc(F)c(NCC(N)C2CC2)nc1Nc1ccc2ncccc2c1 (stereo not shown) [Example 014-013, 6-((2-amino-2-cyclopropylethyl)amino)-5-fluoro-2-((quinolin-6-yl)amino)nicotinamide] | 130 to 200 nM | 10 to 50 nM | –
9 | CCC[C@@H](Nc1nc(Nc2ccnc(OCCOC)c2)c(C(N)=O)cc1F)[C@@H](N)CC [Example 006-401, 6-(((3S,4R)-3-aminoheptan-4-yl)amino)-5-fluoro-2-((2-(2-methoxyethoxy)pyridin-4-yl)amino)nicotinamide] | 130 to 200 nM | 10 to 50 nM | –
10 | C[C@H](N)[C@@H](CC1CC1)Nc1nc(Nc2cccc3c2cnn3C)c(C(N)=O)cc1F [Example 006-356, 6-(((2R,3S)-3-amino-1-cyclopropylbutan-2-yl)amino)-5-fluoro-2-((1-methyl-1H-indazol-4-yl)amino)nicotinamide] | < 65 nM | < 10 nM | –
11 | NC(=O)c1cc(F)c(N[C@@H]2CCCC[C@@H]2N)nc1Nc1cncc(-c2cc[nH]c2)c1 (relative stereo) [Example 006-116, 2-((5-(1H-pyrrol-3-yl)pyridin-3-yl)amino)-6-((cis-2-aminocyclohexyl)amino)-5-fluoronicotinamide] | 130 to 200 nM | < 10 nM | –
12 | NC(=O)c1cc(F)c(N[C@@H]2CCCC[C@@H]2N)nc1Nc1cncc(-n2cccn2)c1 [Example 006-168, 2-((5-(1H-pyrazol-1-yl)pyridin-3-yl)amino)-6-(((1R,2S)-2-aminocyclohexyl)amino)-5-fluoronicotinamide] | – | < 10 nM | < 65 nM
13 | CC(C)[C@H](CN)Nc1nc(Nc2ccc3ncccc3c2)c(C(N)=O)cc1F [Example 006-160, (R)-6-((1-amino-3-methylbutan-2-yl)amino)-5-fluoro-2-(quinolin-6-ylamino)nicotinamide] | 65 to 130 nM | < 10 nM | –
14 | C[C@H](N)[C@@H](C)Nc1nc(Nc2cccc3ncccc23)c(C(N)=O)cc1F [Example 006-110] | – | < 10 nM | 65 to 130 nM
15 | CCCc1nn(C)c2ccc(Nc3nc(N[C@H](CC4CC4)[C@H](C)N)c(F)cc3C(N)=O)cc12 [Example 006-464, 6-(((2R,3S)-3-amino-1-cyclopropylbutan-2-yl)amino)-5-fluoro-2-((1-methyl-3-propyl-1H-indazol-5-yl)amino)nicotinamide] | 65 to 130 nM | < 10 nM | –
16 | CCC[C@@H](Nc1nc(Nc2cncc(-c3cc(OC)ccc3F)c2)c(C(N)=O)cc1F)[C@H](C)N [Example 006-288] | 130 to 200 nM | < 10 nM | –

Row | Structure (SMILES) | IC50 (THP-1 cells; [2]) | IC50 [1] | IC50 (THP-1 cells; THP-1 cells)
17 | CCCC[C@@H](Nc1nc(Nc2ccnc(OC)c2)c(C(N)=O)cc1F)[C@H](C)N [Example 006-406, 6-(((2S,3R)-2-aminoheptan-3-yl)amino)-5-fluoro-2-((2-methoxypyridin-4-yl)amino)nicotinamide] | 65 to 130 nM | < 10 nM | –
18 | Cc1cnc2cc(Nc3nc(N[C@@H](CN)CC(C)C)c(F)cc3C(N)=O)ccc2n1 [Example 006-148, (R)-6-((1-amino-4-methylpentan-2-yl)amino)-5-fluoro-2-((2-methylquinoxalin-6-yl)amino)nicotinamide] | 130 to 200 nM | < 10 nM | –
19 | CC[C@@H](Nc1nc(Nc2ccc3c(cnn3C)c2)c(C(N)=O)cc1F)[C@H](C)N [Example 006-210, 6-(((2S,3R)-2-aminopentan-3-yl)amino)-5-fluoro-2-((1-methyl-1H-indazol-5-yl)amino)nicotinamide] | < 65 nM | < 10 nM | –
20 | NC(=O)c1cc(F)c(N[C@@H]2CCCC[C@@H]2N)nc1Nc1ccnc2c1ccn2CC(F)(F)F [Example 004-039] | 130 to 200 nM | < 10 nM | –
21 | C[C@H](N)[C@H](Nc1nc(Nc2ccc3c(c2)c(F)nn3C)c(C(N)=O)cc1F)C1CC1 [Example 006-577, 6-(((1R,2S)-2-amino-1-cyclopropylpropyl)amino)-2-((3-fluoro-1-methyl-1H-indazol-5-yl)amino)-5-fluoronicotinamide] | < 65 nM | < 10 nM | –
22 | CCC[C@@H](Nc1nc(Nc2cnc(C)c(-n3nccn3)c2)c(C(N)=O)cc1F)[C@@H](N)CC [Example 006-403, 6-(((3S,4R)-3-aminoheptan-4-yl)amino)-5-fluoro-2-((6-methyl-5-(2H-1,2,3-triazol-2-yl)pyridin-3-yl)amino)nicotinamide] | 130 to 200 nM | 10 to 50 nM | –
23 | Cn1ncc2cc(Nc3nc(NC[C@@H](N)c4ccccc4)c(F)cc3C(N)=O)ccc21 [Example 006-119, (S)-6-((2-amino-2-phenylethyl)amino)-5-fluoro-2-((1-methyl-1H-indazol-5-yl)amino)nicotinamide] | 130 to 200 nM | 10 to 50 nM | –
24 | CCOc1nn(CC)c2ccc(Nc3nc(N[C@H](CC4CC4)[C@H](C)N)c(F)cc3C(N)=O)cc12 [Example 006-591, 6-(((2R,3S)-3-amino-1-cyclopropylbutan-2-yl)amino)-2-((3-ethoxy-1-ethyl-1H-indazol-5-yl)amino)-5-fluoronicotinamide] | 130 to 200 nM | < 10 nM | –
25 | COc1cc(Nc2nc(N[C@H](C3CC3)[C@H](C)N)c(F)cc2C(N)=O)ccn1 [Example 006-430, 6-(((1R,2S)-2-amino-1-cyclopropylpropyl)amino)-5-fluoro-2-((2-methoxypyridin-4-yl)amino)nicotinamide] | 65 to 130 nM | < 10 nM | –
26 | CC(C)C(N)CNc1nc(Nc2ccc3ncccc3c2)c(C(N)=O)cc1F (stereo not shown) [Example 014-002] | < 65 nM | < 10 nM | –
27 | NC(=O)c1cc(F)c(N[C@@H]2CCCC[C@@H]2N)nc1Nc1ccc2cnccc2c1 (relative stereo) [Example 004-163, 6-(cis-2-aminocyclohexylamino)-5-fluoro-2-((isoquinolin-6-yl)amino)nicotinamide] | < 65 nM | < 10 nM | –
28 | Cn1nc(C2CC2)c2cc(Nc3nc(N[C@@H]4CCCC[C@@H]4N)c(F)cc3C(N)=O)ccc21 [Example 006-544, 6-(((1R,2S)-2-aminocyclohexyl)amino)-2-((3-cyclopropyl-1-methyl-1H-indazol-5-yl)amino)-5-fluoronicotinamide] | 65 to 130 nM | < 10 nM | –
29 | CC(C)C[C@H](CN)Nc1nc(Nc2cncc(Cl)c2)c(C(N)=O)cc1F [Example 006-180, (R)-6-((1-amino-4-methylpentan-2-yl)amino)-2-((5-chloropyridin-3-yl)amino)-5-fluoronicotinamide] | 130 to 200 nM | < 10 nM | –
30 | NC(=O)c1cc(F)c(NC2CCCCC2N)nc1Nc1cncc(-n2cncn2)c1 (stereo not shown) [Example 002-137] | 130 to 200 nM | < 10 nM | –
31 | CCCn1ncc2cc(Nc3nc(NC4CCCCC4N)c(F)cc3C(N)=O)ccc21 (stereo not shown) [Example 002-126] | 65 to 130 nM | < 10 nM | –
32 | CC[C@@H](Nc1nc(Nc2ccc3c(c2)c(C(C)C)nn3C)c(C(N)=O)cc1F)[C@H](C)N [Example 006-543, 6-(((2S,3R)-2-aminopentan-3-yl)amino)-5-fluoro-2-((3-isopropyl-1-methyl-1H-indazol-5-yl)amino)nicotinamide] | 65 to 130 nM | < 10 nM | –
